From patent publication EP0538016A1, “MRSA active 2-phenyl-carbapenems” (MERCK & CO. INC., priority 1991, dated 1993)

Test system: MRSA
Assay: Activity against a strain of MRSA pathogen, relative to thienamycin
Type: cell-based, methicillin resistant Staphylococcus aureus
Settings: relative to the effectiveness of thienamycin, arbitrarily assigned an effectiveness of 1
Description: The activity of the following compounds was measured against a strain of MRSA pathogen and reported as relative to the effectiveness of thienamycin, which is arbitrarily assigned an effectiveness of 1. Regarding this measure of activity, reference is made to R. Guthikonda, et al., J. Med. Chem., 30, 871 (1987). [drawing 76]

Structure (SMILES) | ANTI-INFECTIVE ACTIVITY MRSA
C[C@@H](O)[C@H]1C(=O)N2C(C(=O)O)=C(c3cc([S+](C)[O-])cc([S+](C)[O-])c3)C[C@H]12 (stereo partly drawn) [R^a1=(S→O)Me, R^a2=H, R^a3=(S→O)Me] | 1.2
C[C@@H](O)[C@H]1C(=O)N2C(C(=O)O)=C(c3cc([S+](C)[O-])cc(S(C)(=O)=O)c3)C[C@H]12 (stereo partly drawn) [R^a1=(S→O)Me, R^a2=H, R^a3=[drawing]] | 3.7
CC(O)C1C(=O)N2C(C(=O)O)=C(c3cc(Br)cc(CO)c3)CC12 (stereo not drawn) [R^a1=Br, R^a2=H, R^a3=CH2OH, reference compound] | 8.7
CC(O)C1C(=O)N2C(C(=O)O)=C(c3cc(Br)cc(C=O)c3)CC12 [R^a1=Br, R^a2=H, R^a3=HC=O, sodium (5R,6S)-2-[(3-aldehydo)-(5-bromo)phenyl]-6-[(1R)-1-hydroxyethyl]carbapen-2-em-3-carboxylate] | 219
CC(O)C1C(=O)N2C(C(=O)O)=C(c3cccc(CO)c3)CC12 (stereo not drawn) [R^a1=H, R^a2=H, R^a3=CH2OH, reference compound] | 0.9
CC(O)C1C(=O)N2C(C(=O)O)=C(c3cccc(C=O)c3)CC12 (stereo not drawn) [R^a1=H, R^a2=H, R^a3=HC=O, reference compound] | 3.3
CC(O)C1C(=O)N2C(C(=O)O)=C(c3ccc(C=O)cc3)CC12 (stereo not drawn) [R^a1=H, R^a2=HC=O, R^a3=H, reference compound] | 2
CC(O)C1C(=O)N2C(C(=O)O)=C(c3ccc(I)cc3)CC12 (stereo not drawn) [R^a1=H, R^a2=I, R^a3=H, reference compound] | 1.8
CC(O)C1C(=O)N2C(C(=O)O)=C(c3cc(I)cc([S+](C)[O-])c3)CC12 [R^a1=I, R^a2=H, R^a3=(S→O)Me, sodium (5R, 6S)-2-[(3-methylsulfinyl)-5-iodophenyl]-6-[(1R)-1-hydroxyethyl]carbapen-2-em-3-carboxylate] | 63
CC(O)C1C(=O)N2C(C(=O)O)=C(c3cccc(I)c3)CC12 (stereo not drawn) [R^a1=I, R^a2=H, R^a3=H, reference compound] | 21
CC(O)C1C(=O)N2C(C(=O)O)=C(c3cc(I)cc(I)c3)CC12 [R^a1=I, R^a2=H, R^a3=I, sodium (5R,6S)-2-[(3,5-diiodo)phenyl]-6-[1R-1-hydroxyethyl]-carbapen-2-em-3-carboxylate] | 88
CSc1cc(I)cc(C2=C(C(=O)O)N3C(=O)C(C(C)O)C3C2)c1 [R^a1=I, R^a2=H, R^a3=SMe, sodium (5R, 6S)-2-[(3-methylthio)-5-iodophenyl]-6-[(1R)-1-hydroxyethyl]carbapen-2-em-3-carboxylate] | 60
CC(O)C1C(=O)N2C(C(=O)O)=C(c3cc(I)cc(S(C)(=O)=O)c3)CC12 (stereo not drawn) [R^a1=I, R^a2=H, R^a3=[drawing]] | 63
CSc1cc(C2=C(C(=O)O)N3C(=O)[C@H]([C@@H](C)O)[C@H]3C2)cc([S+](C)[O-])c1 (stereo partly drawn) [R^a1=SMe, R^a2=H, R^a3=(S→O)Me, sodium (5R,6S)-2-[(3-methylsulfinyl)-(5-methylthio)phenyl]-6-[(1R)-hydroxyethyl]carbapen-2-em-3-carboxylate] | 6.1
CSc1cc(CO)cc(C2=C(C(=O)O)N3C(=O)[C@H]([C@@H](C)O)[C@H]3C2)c1 [R^a1=SMe, R^a2=H, R^a3=CH2OH] | 3.2
CSc1cc(C=O)cc(C2=C(C(=O)O)N3C(=O)[C@H]([C@@H](C)O)[C@H]3C2)c1 [R^a1=SMe, R^a2=H, R^a3=HC=O] | 61
CSc1cc(SC)cc(C2=C(C(=O)O)N3C(=O)C(C(C)O)C3C2)c1 (stereo not drawn) [R^a1=SMe, R^a2=H, R^a3=SMe] | 28
C[C@@H](O)[C@H]1C(=O)N2C(C(=O)O)=C(c3cc(S(C)(=O)=O)cc(S(C)(=O)=O)c3)C[C@H]12 [R^a1=[drawing], R^a2=H, R^a3=[drawing]] | 12
